Measured values: patent US5550119A, “Phosphono substituted tetrazole derivatives as ECE inhibitors” (Ciba-Geigy Corporation, priority 1995, dated 1996)

Columns and labels:
plasma ANF concentration = assay: effect on rat plasma ANF concentration; type: in vivo, Male Sprague-Dawley rats; settings: about 10 mg/kg p.o., in 10% ethanol/polyethylene glycol 400; ANF infused 450 ng/kg/min i.v.
Method: The effect of the compounds of the invention on rat plasma ANF concentration can be determined as follows:
Male Sprague-Dawley rats (275-390 g) are anesthetized with ketamine (150 mg/kg)/acepromazine (10%) and instrumented with catheters in the femoral artery and vein to obtain blood samples and infuse ANF, respectively. The rats are tethered with a swivel system and are allowed to recover for 24 hours before being studied in the conscious, unrestrained state.
In this assay, plasma ANF levels are determined in the presence and absence of NEP inhibition. On the day of study, all rats are infused continuously with ANF at 450 ng/kg/min. i.v. for the entire 5 hours of the experiment. Sixty minutes after beginning the infusion, blood samples for baseline ANF measurements are obtained (time 0) and the rats are then randomly divided into groups treated with the test compound or vehicle. Additional blood samples are taken 30, 60, 120, 180 and 240 minutes after administration of the test compound.
Plasma concentrations are determined by a specific radioimmunoassay. […] The supenatant is decanted and the pellets counted in a gamma counter. […] Plasma ANF levels are expressed as a percent of those measured in vehicle-treated animals which received ANF alone (450 ng/kg/min i.v.).

[1] = tested on: DOCA-salt hypertensive rats; assay: antihypertensive effect in DOCA-salt hypertensive rats; type: in vivo, rat; settings: 10 mg/Kg p.o., in PEG 400
Method: The antihypertensive effect can be determined in desoxycorticosterone acetate (DOCA)-salt hypertensive rats.
DOCA-salt hypertensive rats (280-380 g) are prepared by the standard method. Rats underwent a unilateral nephrectomy and one week later are implanted with silastic pellets containing 100 mg/kg of DOCA. The rats are maintained on 1% NaCl/0.2% KCl drinking water for three to five weeks until sustained hypertension is established. The antihypertensive activity is evaluated at this time.
Two days before an experiment, the rats are anesthetized with methoxyflurane and instrumented with catheters in the femoral artery to measure arterial blood pressure. Forty-eight hours later, baseline arterial pressure and heart rate are recorded during a 1 hour period. The test compound or vehicle is then administered and the same cardiovascular parameters are monitored for an additional 5 hours.

[2] = target: T1, porcine endothelin converting enzyme (Sus scrofa, UniProt A0A8W4FBH0); assay: in vitro inhibition of porcine endothelin-converting enzyme (ECE); type: biochemical; settings: partially purified from porcine primary aortic endothelial cells
T1 construct: partially purified from porcine primary aortic endothelial cells by DE52 anion exchange column; endogenous in cells; host or cells: porcine primary aortic endothelial cells
T1 sequence (A0A8W4FBH0 1-751): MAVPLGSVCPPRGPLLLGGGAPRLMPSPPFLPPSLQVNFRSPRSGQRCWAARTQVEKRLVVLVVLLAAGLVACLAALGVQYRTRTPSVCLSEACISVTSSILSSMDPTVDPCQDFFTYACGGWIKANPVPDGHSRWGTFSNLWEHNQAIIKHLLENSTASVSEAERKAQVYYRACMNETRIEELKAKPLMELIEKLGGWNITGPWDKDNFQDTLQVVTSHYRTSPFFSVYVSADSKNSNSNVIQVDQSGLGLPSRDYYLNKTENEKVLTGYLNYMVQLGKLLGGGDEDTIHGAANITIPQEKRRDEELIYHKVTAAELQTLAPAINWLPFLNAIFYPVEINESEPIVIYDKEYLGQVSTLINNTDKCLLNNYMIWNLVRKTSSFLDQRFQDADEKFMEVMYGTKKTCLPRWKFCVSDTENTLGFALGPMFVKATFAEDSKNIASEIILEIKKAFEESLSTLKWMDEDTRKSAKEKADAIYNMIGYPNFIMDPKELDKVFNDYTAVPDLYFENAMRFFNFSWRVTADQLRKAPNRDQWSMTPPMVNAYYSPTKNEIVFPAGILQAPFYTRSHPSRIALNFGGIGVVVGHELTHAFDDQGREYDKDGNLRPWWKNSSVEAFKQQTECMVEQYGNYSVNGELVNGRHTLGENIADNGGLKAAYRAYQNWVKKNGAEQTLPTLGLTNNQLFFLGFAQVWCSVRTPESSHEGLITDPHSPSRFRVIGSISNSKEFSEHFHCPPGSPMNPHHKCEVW
Text: Endothelin converting enzyme (ECE) is partially purified from porcine primary aortic endothelial cells by DE52 anion exchange column chromatrography and its activity is quantified by radioimmunoassay as described in Anal. Biochem. 213, 434-436 (1993). The ECE inhibition can be determined as described in Biochem. Mol. Biol. Int. 31, (5), 861-867 (1993), by radioimmunoassay to measure ET-1 formed from big ET-1.

[3] = tested on: big ET-1 induced pressor response; assay: inhibition of big ET-1 induced pressor response in conscious spontaneously hypertensive rats (SHR); type: in vivo; settings: continuous infusion of 5 mg/Kg/day; over 60 minutes; vs vehicle control
Method: ECE inhibition can also be determined in vivo by measuring the inhibition big ET-1 induced pressor response in conscious spontaneously hypertensive rats (SHR), e.g. as described in Biochem. Biophys. Res. Communic. 204, 407-412 (1994).
Male SHR (16-18 weeks of age) are administered either test compound or vehicle (1M NaHCO3) via an osmotic minipump implated subcutaneously. On day 5 femoral arterial and venous catheters are placed in anesthetized rats for the measurement of MAP (mean arterial pressure) and for test compound administration, respectively. After a 48 hour recovery period, MAP is recorded (day 7) through the arterial catheter connected to a pressure transducer. Blood pressure and heart rate are allowed to stabilize for 30 minutes before ganglion blockade is performed using chlorisondamine ([…] i.v.). Approximately 15 minutes later, a bolus dose of big ET-1 (0.25 nmol/kg i.v.) is administered to both vehicle- and test compound treated rats. The change in blood pressure in response to big ET-1 is then compared between the two groups of rats at 1, 5, 10, 15, 30 and 60 min after dosing using a two-way ANOVA.

[4] = tested on: spontaneous hypertensive rats; assay: mean arterial pressure of spontaneous hypertensive rats using telemetry; type: in vivo, rat; settings: continuous infusion of 5 mg/Kg/day for 13 days, no exogenous big ET-1

IC50 [2] [nM] | Structure (SMILES) | plasma ANF levels (plasma ANF concentration) | blood pressure [1] | reduction of big ET-1 induced pressor response [3] | mean arterial pressure [4]
– | O=P(CN[C@@H](Cc1ccc(-c2ccccc2)cc1)c1nnn[nH]1)(Oc1ccccc1)Oc1ccccc1 | significant increases in plasma ANF levels | significant reduction in blood pressure | – | –
~1100 | O=P(O)(O)CN[C@@H](Cc1ccc(-c2ccccc2)cc1)c1nnn[nH]1 [(S)-[2-(Biphenyl-4-yl)-1-(1H-tetrazol-5-yl)-ethylamino]-methylphosphonic acid] | – | – | significant difference in reduction of big ET-1 induced pressor response | sustained reduction in the mean arterial pressure
